Test results reported in ChEMBL document CHEMBL5257031, “Drug-like Antagonists of P2Y Receptors-From Lead Identification to Drug Development” (J Med Chem, 2016).
One block for each compound: values may come before it.

Experiments:
P2Y purinoceptor 4 [1] = biological target: T1, P2Y purinoceptor 4 (Homo sapiens, UniProt P51582); experiment: Agonist activity at human P2Y4 transfected in human 1321N1 cells; format: cell-based
P2Y purinoceptor 14 [2] = biological target: T2, P2Y purinoceptor 14 (Rattus norvegicus, UniProt O35881); experiment: Antagonist activity at rat P2Y14
T2 sequence (O35881 whole entry): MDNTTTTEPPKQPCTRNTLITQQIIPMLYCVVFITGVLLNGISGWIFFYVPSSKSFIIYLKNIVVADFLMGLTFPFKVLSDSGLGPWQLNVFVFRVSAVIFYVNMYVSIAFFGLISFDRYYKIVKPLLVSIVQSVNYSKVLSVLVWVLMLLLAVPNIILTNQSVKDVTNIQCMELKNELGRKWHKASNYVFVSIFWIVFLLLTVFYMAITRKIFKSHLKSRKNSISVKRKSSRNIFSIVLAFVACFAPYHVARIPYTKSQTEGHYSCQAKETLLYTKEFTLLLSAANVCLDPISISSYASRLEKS

P2Y purinoceptor 2 = P2Y purinoceptor 2 (Mus musculus, UniProt P35383); experiment: Antagonist activity at mouse P2Y2
Sequence of P2Y purinoceptor 2 (P35383 whole entry): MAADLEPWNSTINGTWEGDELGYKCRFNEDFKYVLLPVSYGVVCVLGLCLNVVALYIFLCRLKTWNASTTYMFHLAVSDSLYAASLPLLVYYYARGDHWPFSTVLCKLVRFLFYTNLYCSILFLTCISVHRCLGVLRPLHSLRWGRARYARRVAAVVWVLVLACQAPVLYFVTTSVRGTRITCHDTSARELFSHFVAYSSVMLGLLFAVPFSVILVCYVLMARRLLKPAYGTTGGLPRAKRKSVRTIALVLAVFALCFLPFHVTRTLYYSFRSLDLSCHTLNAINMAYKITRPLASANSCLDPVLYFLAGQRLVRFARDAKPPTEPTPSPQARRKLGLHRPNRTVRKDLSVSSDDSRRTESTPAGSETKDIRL

[3] = Antagonist activity at human P2Y12 by aggregation assay
P2Y purinoceptor 13 [4] = biological target: T3, P2Y purinoceptor 13 (Homo sapiens, UniProt Q9BPV8); experiment: Antagonist activity at human P2Y13
T3 sequence (Q9BPV8 whole entry): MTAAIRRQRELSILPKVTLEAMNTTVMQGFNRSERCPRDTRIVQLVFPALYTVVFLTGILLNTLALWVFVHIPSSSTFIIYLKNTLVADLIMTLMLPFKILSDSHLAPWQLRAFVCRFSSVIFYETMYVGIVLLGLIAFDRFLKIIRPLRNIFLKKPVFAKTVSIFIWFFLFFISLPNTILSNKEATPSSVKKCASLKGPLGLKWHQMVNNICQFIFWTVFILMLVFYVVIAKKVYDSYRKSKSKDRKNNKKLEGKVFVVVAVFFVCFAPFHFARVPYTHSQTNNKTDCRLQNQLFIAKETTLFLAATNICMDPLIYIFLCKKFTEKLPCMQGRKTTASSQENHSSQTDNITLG

P2Y purinoceptor 12 [5] = biological target: T4, P2Y purinoceptor 12 (Homo sapiens, UniProt Q9H244); experiment: Antagonist activity at human P2Y12
T4 sequence (Q9H244 whole entry): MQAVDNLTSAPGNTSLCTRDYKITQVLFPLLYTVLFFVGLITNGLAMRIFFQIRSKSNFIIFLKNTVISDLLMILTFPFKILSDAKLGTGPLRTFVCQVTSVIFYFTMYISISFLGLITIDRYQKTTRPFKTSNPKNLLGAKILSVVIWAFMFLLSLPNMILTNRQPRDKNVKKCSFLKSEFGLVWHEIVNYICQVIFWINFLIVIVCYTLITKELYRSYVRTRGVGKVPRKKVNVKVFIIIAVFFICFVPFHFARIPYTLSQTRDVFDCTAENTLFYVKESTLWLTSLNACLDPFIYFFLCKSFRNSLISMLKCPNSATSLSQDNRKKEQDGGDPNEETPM

[6] = Half life in C57BL/6 mouse 2 mg/kg, iv; format: ADME, organism-based; details: in vivo
[7] = Half life in C57BL/6 mouse 2 mg/kg, iv; details: in vivo
[8] = Oral bioavailability in C57BL/6 mouse at 50 mg/kg; details: in vivo
P2Y purinoceptor 1 [9] = biological target: T5, P2Y purinoceptor 1 (Homo sapiens, UniProt P47900); experiment: Inhibition of human P2Y1
T5 sequence (P47900 whole entry): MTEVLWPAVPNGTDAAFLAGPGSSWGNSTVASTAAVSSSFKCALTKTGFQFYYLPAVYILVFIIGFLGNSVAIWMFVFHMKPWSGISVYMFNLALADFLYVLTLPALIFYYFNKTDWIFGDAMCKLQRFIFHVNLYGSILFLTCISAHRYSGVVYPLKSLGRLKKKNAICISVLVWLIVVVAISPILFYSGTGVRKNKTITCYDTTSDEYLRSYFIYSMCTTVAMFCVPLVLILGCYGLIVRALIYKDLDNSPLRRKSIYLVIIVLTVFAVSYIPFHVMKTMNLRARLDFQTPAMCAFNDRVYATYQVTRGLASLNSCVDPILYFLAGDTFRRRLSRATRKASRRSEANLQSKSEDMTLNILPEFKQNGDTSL

P2Y purinoceptor 12 [10] = biological target: T4, P2Y purinoceptor 12; experiment: Displacement of [3H]-2-MeS-ADP from human P2Y12 assessed as inhibition constant incubated for 30 mins
P2Y purinoceptor 1 [11] = biological target: T5, P2Y purinoceptor 1; experiment: Inhibition of human P2Y1 assessed as inhibition constant
P2Y purinoceptor 6 = P2Y purinoceptor 6 (Homo sapiens, UniProt Q15077); experiment: Antagonist activity at human P2Y6
Sequence of P2Y purinoceptor 6 (Q15077 whole entry): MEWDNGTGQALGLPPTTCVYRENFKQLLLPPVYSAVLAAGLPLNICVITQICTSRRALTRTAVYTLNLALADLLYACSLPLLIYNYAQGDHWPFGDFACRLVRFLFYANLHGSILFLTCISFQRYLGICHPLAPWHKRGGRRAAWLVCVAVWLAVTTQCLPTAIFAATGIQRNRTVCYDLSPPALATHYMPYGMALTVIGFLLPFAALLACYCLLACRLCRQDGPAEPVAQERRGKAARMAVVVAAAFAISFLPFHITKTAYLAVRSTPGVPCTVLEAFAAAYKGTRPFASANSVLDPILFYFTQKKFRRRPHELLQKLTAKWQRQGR

P2Y purinoceptor 13 [12] = biological target: T3, P2Y purinoceptor 13; experiment: Antagonist activity at P2Y13 (unknown origin)
[13] = Oral bioavailability in mouse; details: in vivo
[14] = Binding affinity to chimpanzee P2Y14 assessed as inhibition constant; parameters: species or system Pan troglodytes
[15] = Cmax in rat measured up to 24 hrs; format: ADME; parameters: time < 24 hrs; details: in vivo
in vivo = details: mouse, po
[16] = Cmax in mouse measured up to 24 hrs; format: ADME; parameters: time < 24 hrs; details: in vivo
P2Y purinoceptor 4 [17] = biological target: T1, P2Y purinoceptor 4
P2Y purinoceptor 4 [18] = biological target: P2Y purinoceptor 4 (Rattus norvegicus, UniProt O35811); experiment: Agonist activity at rat P2Y4
Sequence of P2Y purinoceptor 4 (Rattus norvegicus, UniProt O35811) (O35811 whole entry): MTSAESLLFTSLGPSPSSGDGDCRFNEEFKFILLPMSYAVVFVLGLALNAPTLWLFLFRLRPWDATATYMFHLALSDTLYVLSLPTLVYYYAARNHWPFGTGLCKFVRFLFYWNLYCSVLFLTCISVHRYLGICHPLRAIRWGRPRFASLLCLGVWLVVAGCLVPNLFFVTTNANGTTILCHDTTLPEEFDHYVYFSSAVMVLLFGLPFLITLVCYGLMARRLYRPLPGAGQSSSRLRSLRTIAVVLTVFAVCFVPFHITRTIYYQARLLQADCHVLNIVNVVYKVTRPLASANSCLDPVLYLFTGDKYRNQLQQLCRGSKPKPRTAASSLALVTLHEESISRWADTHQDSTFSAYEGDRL

P2Y purinoceptor 1 [19] = biological target: T5, P2Y purinoceptor 1; experiment: Agonist activity at human P2Y1
[20] = Antagonist activity at human pA2 by FLIPR assay
[21] = Volume of distribution at steady state in rat; format: ADME; details: in vivo
[22] = Clearance in rat; format: ADME; details: in vivo
[23] = Antagonist activity at P2Y14 using UDP-Glc as substrate
P2Y purinoceptor 14 [24] = biological target: T6, P2Y purinoceptor 14 (Homo sapiens, UniProt Q15391); experiment: Antagonist activity at human P2Y14 expressed in CHO cells assessed as inhibition constant; format: cell-based
T6 sequence (Q15391 whole entry): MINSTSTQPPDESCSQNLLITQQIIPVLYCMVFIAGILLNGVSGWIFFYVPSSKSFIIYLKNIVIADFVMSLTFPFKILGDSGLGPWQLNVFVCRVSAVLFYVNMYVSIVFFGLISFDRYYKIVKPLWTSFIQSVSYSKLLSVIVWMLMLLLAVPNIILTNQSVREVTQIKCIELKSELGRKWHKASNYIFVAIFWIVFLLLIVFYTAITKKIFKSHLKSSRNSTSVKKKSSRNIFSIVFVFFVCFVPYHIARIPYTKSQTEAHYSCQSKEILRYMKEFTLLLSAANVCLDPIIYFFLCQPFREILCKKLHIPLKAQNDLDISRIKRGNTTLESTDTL

[25] = Antagonist activity at ATP gamma S induced mucin in Normal human bronchial epithelial cell; format: cell-based
P2Y purinoceptor 4 [26] = biological target: T1, P2Y purinoceptor 4; experiment: Agonist activity at human P2Y4 transfected in human 1321N1 cells at 100 uM relative to control; format: cell-based
[27] = biological target: P2Y purinoceptor 4 (Rattus norvegicus) (UniProt O35811); experiment: Agonist activity at rat P2Y4 transfected in human 1321N1 cells at 100 uM relative to control; format: cell-based
Sequence of P2Y purinoceptor 4 (Rattus norvegicus) (O35811 whole entry): as the sequence (O35811 whole entry) above

[28] = Half life in rat 30 mg/kg, po; format: ADME, organism-based; details: in vivo
[29] = Clearance in rat at 30 mg/kg, po; format: ADME, organism-based; details: in vivo
[30] = Volume of distribution at steady state in rat at 30 mg/kg, PO; format: ADME, organism-based; details: in vivo
[31] = Half life in rat 1 mg/kg, iv; format: ADME, organism-based; details: in vivo

T1 sequence (P51582 whole entry): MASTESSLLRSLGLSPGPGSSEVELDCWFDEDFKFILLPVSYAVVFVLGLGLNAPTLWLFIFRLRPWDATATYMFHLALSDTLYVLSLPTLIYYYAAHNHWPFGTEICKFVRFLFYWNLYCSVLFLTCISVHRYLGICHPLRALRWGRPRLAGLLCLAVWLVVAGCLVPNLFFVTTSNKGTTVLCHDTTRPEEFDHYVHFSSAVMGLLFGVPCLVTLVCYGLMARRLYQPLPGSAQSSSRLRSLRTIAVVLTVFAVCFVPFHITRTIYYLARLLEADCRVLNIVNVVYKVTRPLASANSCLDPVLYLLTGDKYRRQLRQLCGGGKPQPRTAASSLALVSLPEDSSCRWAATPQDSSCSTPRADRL

EC50 (P2Y purinoceptor 4 [1]): 550 nM
SMILES: O=c1ccn([C@@H]2O[C@H](COP(=O)(O)OP(=O)(O)OP(=O)(O)O)[C@@H](O)[C@H]2O)c(=O)[nH]1 [URIDINE TRIPHOSPHATE]

EC50 (P2Y purinoceptor 14 [2]): 350 nM
SMILES: O=c1ccn([C@@H]2O[C@H](COP(=O)(O)OP(=O)(O)O)[C@@H](O)[C@H]2O)c(=O)[nH]1 [URIDINE_DIPHOSPHATE]

IC50 (P2Y purinoceptor 2): 12000 nM
SMILES: COc1ccc(-c2cc(=O)c3c(OC)c(OC)c(OC)c(OC)c3o2)cc1 [TANGERETIN]

pIC50 [3]: 7
SMILES: CCCCNc1nc(SCCC)nc2c1ncn2[C@@H]1O[C@H](/C=C/C(=O)N[C@@H](CC(=O)O)C(=O)O)[C@@H](O)[C@H]1O

IC50 (P2Y purinoceptor 13 [4]): 661 nM
SMILES: Cc1nc(/N=N/c2ccc(Cl)c([N+](=O)[O-])c2)c(COP(=O)(O)O)c(C=O)c1O

IC50 (P2Y purinoceptor 12 [5]): 130 nM
SMILES: CCOC(=O)N1CCN(C(=O)[C@H](CCC(=O)O)NC(=O)c2cc(OC(C)(C)C(=O)OCC)c3ccc(C)cc3n2)CC1

half-life [6]: 2.7 h
half-life [7]: 2.7 h
bioavailability [8]: 12%
SMILES: Cc1cc(F)cc(C)c1COc1ccc2c(-c3ccsc3)cc(C(=O)O)cc2c1

IC50 (P2Y purinoceptor 12 [5]): 8.3 nM
SMILES: CCOC(=O)N1CCN(C(=O)[C@H](CCC(=O)O)NC(=O)c2cc(OC(C)(C)C(=O)O)c3ccc(C)cc3n2)CC1

IC50 (P2Y purinoceptor 1 [9]): 330 nM
SMILES: CNc1ncnc2c1ncn2[C@H]1C[C@H](OP(=O)(O)O)[C@@H](COP(=O)(O)O)O1

Ki (P2Y purinoceptor 12 [10]): 2 nM
SMILES: CCCSc1nc(N[C@@H]2C[C@H]2c2ccccc2)c2nnn([C@@H]3C[C@H](c4nnn[nH]4)[C@@H](O)[C@H]3O)c2n1

Ki (P2Y purinoceptor 1 [11]): > 10000 nM
SMILES: Cc1cc(Oc2ccccc2NC(=O)Nc2ccc(C3CCS(=O)(=O)CC3)cc2)n(-c2ccccc2Cl)n1

IC50 (P2Y purinoceptor 6): 100 nM
SMILES: S=C=Nc1ccc(CCc2ccc(N=C=S)cc2)cc1

pIC50 [3]: 9.5
SMILES: CCCCNc1nc(SCCC)nc2c1nnn2[C@@H]1O[C@H](/C=C/C(=O)N[C@@H](CC(=O)O)C(=O)O)[C@@H](O)[C@H]1O

SMILES: Nc1c(S(=O)(=O)O)cc(Nc2ccc(Nc3nc(Cl)nc(Nc4cccc(S(=O)(=O)O)c4)n3)c(S(=O)(=O)O)c2)c2c1C(=O)c1ccccc1C2=O [RB 2]
IC50 (P2Y purinoceptor 13 [12]): 1900 nM

SMILES: O=C(O)c1cc(-c2ccc(C3CCNCC3)cc2)c2ccc(-c3ccc(C(F)(F)F)cc3)cc2c1 [PPTN]
bioavailability [13]: 5%
Ki [14]: 1.9 nM
Cmax [15]: 680 nM
bioavailability (in vivo): 5%
Cmax [16]: 2280 nM

SMILES: Nc1ncnc2c1ncn2[C@@H]1O[C@H](COP(=O)(O)OP(=O)(O)OP(=O)(O)O)[C@@H](O)[C@H]1O [ADENOSINE TRIPHOSPHATE]
EC50 (P2Y purinoceptor 4 [17]): 6200 nM
EC50 (P2Y purinoceptor 4 [18]): 1170 nM

EC50 (P2Y purinoceptor 1 [19]): 6300 nM
IC50 (P2Y purinoceptor 1 [19]): 5800 nM
SMILES: Nc1ncnc2c1ncn2[C@H]1C[C@H](OP(=O)(O)O)[C@@H](COP(=O)(O)O)O1

pIC50 [3]: 9.3
SMILES: CCCCNc1nc(SCCC)nc2c1nnn2[C@@H]1C[C@H](/C=C/C(=O)N[C@@H](CC(=O)O)C(=O)O)[C@@H](O)[C@H]1O

IC50 (P2Y purinoceptor 13 [12]): 11600 nM
SMILES: Cc1nc(/N=N/c2ccc(S(=O)(=O)O)cc2S(=O)(=O)O)c(COP(=O)(O)O)c(C=O)c1O

IC50 (P2Y purinoceptor 1 [19]): 840 nM
SMILES: CNc1nc(Cl)nc2c1ncn2CCC(COP(=O)(O)O)COP(=O)(O)O

IC50 (P2Y purinoceptor 13 [12]): 2300 nM
SMILES: Cc1ccc(C(=O)Nc2ccc(S(=O)(=O)O)c3cc(S(=O)(=O)O)cc(S(=O)(=O)O)c23)cc1NC(=O)c1cccc(NC(=O)Nc2cccc(C(=O)Nc3cc(C(=O)Nc4ccc(S(=O)(=O)O)c5cc(S(=O)(=O)O)cc(S(=O)(=O)O)c45)ccc3C)c2)c1 [SURAMIN HEXASODIUM]

SMILES: CC(C)(C)CN1CCC2(CC1)CN(c1ccccc1NC(=O)Nc1nc3ccc(Cl)nc3s1)c1c(O)cc(F)c(-c3ccc(F)cc3)c12
IC50 [20]: 180 nM
bioavailability [13]: 30%
Vd ([21]; read-out: Vdss): 2.1 L/kg
clearance [22]: 4 mL/min/kg

IC50 [23]: 3500 nM
SMILES: O=C(O)c1cc(-c2ccccc2)c2ccc(OCc3ccccc3)cc2c1

Ki (P2Y purinoceptor 14 [24]): 0.08 nM
SMILES: CC(=O)c1cc(C(=O)NCCCCCCn2cc(CCCCN3CCC(c4ccc(-c5cc(C(=O)O)cc6cc(-c7ccc(C(F)(F)F)cc7)ccc56)cc4)CC3)nn2)ccc1-c1c2ccc(=N)c(S(=O)(=O)O)c-2oc2c(S(=O)(=O)O)c(N)ccc12

Ki (P2Y purinoceptor 1 [11]): 70 nM
SMILES: CCc1ccccc1-n1nc(C)cc1Oc1ccccc1NC(=O)Nc1ccc(OC(F)(F)F)cc1

SMILES: Cc1ccc2c(c1)C=Cc1cc(C)ccc1C2c1cn(Cc2ccc(C(=O)Nc3nnn[nH]3)o2)c(=O)[nH]c1=S
IC50 [25]: 1000 nM

Activity (P2Y purinoceptor 4 [26]): 15%
Activity [27]: 34%
SMILES: Nc1ncnc2c1ncn2[C@@H]1O[C@H](COP(=O)(O)OP(=O)(O)O)[C@@H](O)[C@H]1O

IC50 (P2Y purinoceptor 13 [4]): 1070 nM
SMILES: Cc1nc(/N=N/c2cc([N+](=O)[O-])ccc2Cl)c(COP(=O)(O)O)c(C=O)c1O

SMILES: S=C=Nc1cccc(NC(=S)NCCCCNC(=S)Nc2cccc(N=C=S)c2)c1
IC50 (P2Y purinoceptor 6): 37 nM

half-life [28]: 1.4 h
CL/F [29]: 13 mL/min/kg
Vdss [30]: 0.8 L/kg
half-life [31]: 15.4 h
SMILES: CC(C)(C)c1ccccc1Oc1ncccc1NC(=O)Nc1ccc(OC(F)(F)F)cc1

Vdss [21]: 15.7 L/kg
clearance [22]: 81 mL/min/kg
SMILES: Cc1cc(Oc2ccccc2NC(=O)Nc2ccc(OC(F)(F)F)cc2)n(-c2ccccc2Cl)n1
